Data published in a melting point compilation (Tetko et al.; mined from patent text by program, amines drawn as free bases though some values may be those of a salt).

SMILES | melting point [°C]
O[C@@H]1CNC[C@H]1Oc1cccc2ccccc12 (relative stereo) | 112 to 115
CCOC(=O)Cc1ccc(-c2nc(COc3ccc(COc4nn(-c5ccccc5)cc4/C=C/c4csc(C)n4)cc3OC)c(C)o2)cc1 | 153 to 155
O=C(O)c1ccc(CCCC2SCC(=O)N2CCC2(O)C3CCCC2CCC3)cc1 (centres undefined) | 176 to 178
CCC1(CC)Cc2cc(OCC(=O)O)c(Cl)c(Cl)c2C1=O | 111
CC(C)(C)OC(=O)CC(NC(=O)C1CCCN2C(=O)CCC(NC(=O)c3ccccc3)C(=O)N12)C(O)COCc1c(Cl)cccc1Cl (centres undefined) | 106 to 110
Cc1sc(CCc2ccc(CCCC3OC(=O)NC3=O)cc2)nc1-c1ccccc1 (centres undefined) | 111 to 112
Cc1cc(N2CCN(c3c(C)c(C)c4c(c3C)CC(C)(C)O4)CC2)n2nccc2n1 | 180 to 182
CCc1ccc(O)c(C#N)c1 | 95 to 98
O=[N+]([O-])c1cccc(-c2nc(-c3ccccc3)cc3cccnc23)c1 | 172 to 175
Cc1c(NC(=O)CC(C)(C)C)cc2c(c1C)OC(C)(C)C2(O)c1ccco1 (centres undefined) | 108 to 110
CN1C(=O)C(C)(C)C(=O)N(C)c2cc([N+](=O)[O-])ccc21 | 224 to 225
CC1C(=O)Oc2cc(N3CCCCC3)ccc21 (centres undefined) | 78 to 80
CC(=O)NC[C@H]1CN(c2ccc(C3CCN(C(=O)c4ccno4)CC3)c(F)c2)C(=O)O1 | 290 to 292
C=CCNc1nc(NCC(F)(F)F)nc2ccc([N+](=O)[O-])cc12 | 221 to 222
Cc1c(C(=O)O)oc2c(C(=O)c3ccc(Cl)cc3)cc(C(C)(C)C)c(O)c12 | 214 to 216
CC1(C)CC(c2ccccn2)c2cc(Cl)ccc2O1 (centres undefined) | 124 to 125
COc1cc(C(=O)N(CCCC(=O)NCCCC(=O)O)c2c(C)cccc2C)cc(OC)c1OC | 100 to 101
CN(C)C(=O)c1nn(-c2ccc(Cl)cc2)c(=O)c2c(N)scc12 | 242 to 244
C=CCc1c(O)ccc2ccc(=O)[nH]c12 | 207 to 209
Cc1cc(NCC(C)C)c([N+](=O)[O-])c2nnnn12 | 185 to 187
COc1cc(-c2ccc(C#N)cc2)oc1-c1ccc(C#N)cc1 | 257 to 258
CCN(CC)C(=O)Cc1c(-c2ccc(F)cc2)nc2c(C)cc(C)nn12 | 139 to 143
Cc1ccc(C2C(=O)NC(=O)NC2=O)cc1 | 271
O=C(O)c1sc2ccc(Br)cc2c1-c1ccccc1 | 265 to 266
Cn1c(=O)cc(CCN2CCC(c3c[nH]c4ccccc34)CC2)c2ccccc21 | 79 to 81

SMILES | melting point [°C]
O=c1c2cc(F)ccc2nc(CNc2ncccn2)n1-c1ccccc1Cl | 182 to 185
Clc1ccc2nc(-c3ccccc3)c(-c3ccnnc3)n2n1 | 200 to 207
CCOC(=O)Cc1c(C)n(-c2ncnc3cc(Cl)ccc23)c2ccc(OC)cc12 | 103 to 105
CC(C)C(=O)Nc1cc([N+](=O)[O-])cc([N+](=O)[O-])c1 | 157 to 159
O=[N+]([O-])c1cc(O)cc2cc(-c3ccc(O)cc3)oc12 | 236 to 237
CCOC(=O)Cc1c(C)n(Cc2ccccc2)c2ccc(OCc3nc4ccccc4s3)cc12 | 106 to 107
CS(=O)(=O)c1ccc(-c2cnn(CC(F)(F)F)c(=O)c2NC2CCCO2)cc1 (centres undefined) | 128 to 129
O=C(OCc1ccccc1)c1ccc(O)cc1O | 83 to 88
CC1CC(=O)NN=C1c1ccc(N2CCN(c3ncccn3)CC2)c(N)c1 (centres undefined) | 220 to 221
COc1ccccc1C1C(C#N)=C(c2ccccc2)Nc2n[nH]cc21 (centres undefined) | 206
Cc1oc(-c2ccccc2)nc1CCOc1ccc(C#N)cc1 | 119 to 120
Fc1cc(F)cc(Cc2cccnc2S)c1 | 195 to 197
COc1cc(C(C)C)c2oc3ccccc3c2c1C(=O)Nc1c(Cl)cncc1Cl | 209 to 211
O=[N+]([O-])c1cc(Cl)c(OCCCO)c([N+](=O)[O-])c1OCCCO | 90
CSc1ncnc2c(N3CCSCC3)nc(N3CCNCC3)nc12 | 177 to 179
C=C[C@@H](C)[C@H]1CC[C@H]2[C@@H]3CCC4=CC(=O)CC[C@]4(C)[C@H]3CC[C@]12C | 138 to 139
C=CCOc1ccc(C(=O)Oc2ccc(O)cc2)cc1 | 146
CCCC12CCC3C4=C(CCC3C1CCC2=O)CC(OC)=CC4 (centres undefined) | 128 to 131
Cc1cc(=O)c2ccc(N)cc2s1 | 165 to 169
Nc1nc(N)c(Br)c(OCc2ccccc2)n1 | 165 to 166
CC(=O)c1nc(-c2ccc(=O)n(C(C)C)n2)c(-c2ccccc2)nc1N | 234 to 236
COc1ccc(-c2ccncc2OC2SCC(OC(C)=O)C(OC(C)=O)C2OC(C)=O)cc1 (centres undefined) | 193
O=c1c(N2CCCCC2)nc2ccccc2n1-c1ccc(Cl)cc1 | 184 to 185
Cc1c2c(c(C)c(NC(=O)CC(C)(C)C)c1-c1ccccc1)C(c1ccc(C(C)C)cc1)CO2 (centres undefined) | 212 to 213
